Data as given in ChEMBL document CHEMBL5321295, “Targeted Degradation of Alpha-Synuclein by Autophagosome-Anchoring Chimera Peptides” (J Med Chem, 2023).
Calls of active or inactive are those of the source. The calls are words filed in the database; no cut-off is given here.

Key:
[1] = Toxicity in C57BL/6 mouse assessed as change in cardiac electrophysiology at 50 to 100 mg/kg/day treated for 5 days by ECG analysis; assay type: organism-based; conditions: in vivo, 120 h, dose 50-100 mg/kg/day, time 5 day
Alpha-synuclein [2] = target: T1, Alpha-synuclein (Homo sapiens, UniProt P37840); test: Induction of alpha-synuclein (unknown origin) degradation overexpressed in HEK293T cells infected with adenovirus expressing mCherry-EGFP-LC3B at 50 uM incubated upto 24 hrs by immunoblot analysis; assay type: cell-based
SH-SY5Y [3] = test: Cytoprotective activity in human SH-SY5Y cells transfected with alpha-synuclein (unknown origin) assessed as decrease in ROS level at 100 uM measured after 24 hrs by DCFH-DA staining based flow cytometry (reference value: 76 %); assay type: functional; parameters: scale not given: the % may be the effect or the level left
[4] = Toxicity in C57BL/6 mouse assessed as change in uric acid level at 50 to 200 mg/kg/day treated for 5 days; assay type: organism-based; conditions: in vivo, 120 h, dose 50-200 mg/kg/day, time 5 day
Alpha-synuclein [5] = target: T1, Alpha-synuclein; test: Induction of alpha-synuclein (unknown origin) degradation overexpressed in HEK293T cells with LC3B knockdown at 50 uM incubated for 24 hrs by immunoblot analysis; assay type: cell-based
Alpha-synuclein [6] = target: T1, Alpha-synuclein; test: Binding affinity to alpha-synuclein (unknown origin) overexpressed in HEK293T cells assessed as shift in denaturation at 50 uM incubated for 4 hrs followed by heating at 40 to 75 degreeC for 3 mins by CETSA assay; assay type: cell-based; conditions: time 243.0 min
HEK-293T [7] = test: Downregulation of BANF1 expression in HEK293T cells at 100 uM incubated for 24 hrs by proteomic profiling analysis; assay type: functional, cell-based; conditions: Homo sapiens
Mus musculus [8] = test: Neuroprotective activity in MPTP-induced anxiety-like status in C57BL/6 mouse assessed as increase in zone transition number of mouse track at 50 mg/kg/day, iv treated for 5 days measured after 4 days by open field test; assay type: functional, organism-based; conditions: time 9.0 day
HEK-293T [9] = test: Downregulation of AGPS expression in HEK293T cells at 100 uM incubated for 24 hrs by proteomic profiling analysis; assay type: functional, cell-based; conditions: Homo sapiens
HEK-293T [10] = test: Downregulation of AKR1B1 expression in HEK293T cells at 100 uM incubated for 24 hrs by proteomic profiling analysis; assay type: functional, cell-based; conditions: Homo sapiens
HEK-293T [11] = test: Downregulation of MYL12A expression in HEK293T cells at 100 uM incubated for 24 hrs by proteomic profiling analysis; assay type: functional, cell-based; conditions: Homo sapiens
[12] = Toxicity in C57BL/6 mouse assessed as change in CKMB level at 50 to 200 mg/kg/day treated for 5 days; assay type: organism-based; conditions: in vivo, 120 h, dose 50-200 mg/kg/day, time 5 day
SH-SY5Y [13] = test: Cytoprotective activity in human SH-SY5Y cells transfected with alpha-synuclein (unknown origin) assessed as late apoptotic cells at 100 uM measured after 24 hrs by […] based flow cytometry (reference value: 56.6 %); assay type: functional
HEK-293T [14] = test: Downregulation of MARCKS expression in HEK293T cells at 100 uM incubated for 24 hrs by proteomic profiling analysis; assay type: functional, cell-based; conditions: Homo sapiens
[15] = target: T2, Microtubule-associated protein 1 light chain 3 beta (Homo sapiens, UniProt Q9GZQ8); test: Induction of LC3B-mediated autophagy flux in HEK293T cells overexpressing alpha-synuclein (unknown origin) assessed as increase in ratio of LC3B-II to LC3B-I levels incubated for 4 hrs by immunoblot analysis; assay type: cell-based; conditions: dose <= 100.0 µM
SH-SY5Y [16] = test: Cytoprotective activity in human SH-SY5Y cells transfected with alpha-synuclein (unknown origin) assessed as increase in mitochondrial membrane potential level at 100 uM measured after 24 hrs by confocal laser scanning microscopy/flow cytometry (reference value: 45.02 +/- 5.04 %); assay type: functional
HEK-293T [17] = test: Downregulation of SQSTM1 expression in HEK293T cells at 100 uM incubated for 24 hrs by proteomic profiling analysis; assay type: functional, cell-based; conditions: Homo sapiens
HEK-293T [18] = test: Downregulation of EIF2S1 expression in HEK293T cells at 100 uM incubated for 24 hrs by proteomic profiling analysis; assay type: functional, cell-based; conditions: Homo sapiens
[19] = Toxicity in C57BL/6 mouse assessed as histological change in kidney at 50 to 200 mg/kg/day treated for 5 days by H and E staining based analysis; assay type: organism-based; conditions: in vivo, 120 h, dose 50-200 mg/kg/day, time 5 day
Alpha-synuclein [20] = target: T1, Alpha-synuclein; test: Induction of alpha-synuclein (unknown origin) degradation overexpressed in HEK293T cells at 50 uM incubated for 24 hrs in presence of Rapamycin by immunoblot analysis; assay type: cell-based
[21] = Toxicity in C57BL/6 mouse assessed as body weight loss at 50 to 200 mg/kg/day treated for 5 days; assay type: organism-based; conditions: in vivo, 120 h, dose 50-200 mg/kg/day, time 5 day
[22] = Drug localization in HEK293T cells overexpressing mCherry-fused alpha-synuclein (unknown origin) assessed as colocalization of lysosomes at 50 uM incubated for 2 hrs by LyTG staining based confocal laser scanning microscopy; assay type: ADME, cell-based; conditions: human, hek-293t
HEK-293T [23] = test: Downregulation of ELOB expression in HEK293T cells at 100 uM incubated for 24 hrs by proteomic profiling analysis; assay type: functional, cell-based; conditions: Homo sapiens
Mus musculus [24] = test: Neuroprotective activity in MPTP-induced cognitive impairment in C57BL/6 mouse assessed as increase in distance travelled in target quadrant in probe trial phase at 50 mg/kg/day, iv treated for 5 days measured after 5 to 8 days days by morris water maze test; assay type: functional, organism-based; conditions: time 10-13 day
HEK-293T [25] = test: Downregulation of THOP1 expression in HEK293T cells at 100 uM incubated for 24 hrs by proteomic profiling analysis; assay type: functional, cell-based; conditions: Homo sapiens
[26] = target: T2, Microtubule-associated protein 1 light chain 3 beta; test: Induction of LC3B-mediated autophagy flux in HEK293T cells overexpressing alpha-synuclein (unknown origin) cotransfected with adenovirus-packaged plasmid encoding mCherry-EGFP-fused LC3B assessed as increase in number of autophagosomes incubated for 4 hrs by confocal laser scanning microscopy; assay type: cell-based; conditions: dose <= 100.0 µM
Mus musculus [27] = test: Neuroprotective activity in MPTP-induced anxiety-like status in C57BL/6 mouse assessed as increase in distance travelled in zone centers of mouse track at 50 mg/kg/day, iv treated for 5 days measured after 4 days by open field test; assay type: functional, organism-based; conditions: time 9.0 day
Mus musculus [28] = test: Neuroprotective activity in MPTP-treated C57BL/6 mouse assessed as neuron viability in substantia nigra pars compacta at 50 mg/kg/day, iv treated for 5 days by Nissl staining based microscopy; assay type: functional, organism-based; conditions: time 5.0 day
[29] = Toxicity in C57BL/6 mouse assessed as change in creatinine level at 50 to 200 mg/kg/day treated for 5 days; assay type: organism-based; conditions: in vivo, 120 h, dose 50-200 mg/kg/day, time 5 day
[30] = Chemical stability of compound in cell culture medium at 50 uM measured for 24 hrs by HPLC analysis; assay type: physicochemical
[31] = Toxicity in C57BL/6 mouse assessed as lethargy at 50 to 200 mg/kg/day treated for 5 days; assay type: organism-based; conditions: in vivo, 120 h, dose 50-200 mg/kg/day, time 5 day
Alpha-synuclein [32] = target: T1, Alpha-synuclein; test: Induction of EGFP-fused alpha-synuclein (unknown origin) degradation overexpressed in HEK293T cells co-expressing mCherry-fused LC3B assessed as puncta formation of alpha-synuclein at 50 uM incubated for 2 hrs by confocal laser scanning microscopy; assay type: cell-based
[33] = Toxicity in C57BL/6 mouse assessed as depression in ST segment of cardiac electrophysiology at 200 mg/kg/day treated for 5 days by ECG analysis; assay type: organism-based; conditions: in vivo, 120 h, time 5 day
[34] = Drug localization in HEK293T cells overexpressing mCherry-fused alpha-synuclein (unknown origin) assessed as colocalization of autophagosomes at 50 uM incubated for 2 hrs by MDC staining based confocal laser scanning microscopy; assay type: ADME, cell-based; conditions: human, hek-293t

With CC(C)C[C@H](NC(=O)[C@H](Cc1c[nH]cn1)NC(=O)[C@@H](NC(=O)[C@H](Cc1c[nH]c2ccccc12)NC(=O)[C@H](CC(=O)O)NC(=O)[C@H](CC(=O)O)NC(=O)[C@H](CC(=O)O)NC(=O)CNC(=O)CNC(=O)[C@H](CO)NC(=O)[C@H](CO)NC(=O)CNC(=O)[C@H](CO)NC(=O)CNC(=O)[C@H](CCCNC(=N)N)NC(=O)[C@@H](NC(=O)[C@H](CCCCN)NC(=O)[C@H](CO)NC(=O)CNC(=O)[C@@H](NC(=O)[C@H](Cc1ccc(O)cc1)NC(=O)[C@H](CC(C)C)NC(=O)[C@@H](NC(=O)CN)C(C)C)C(C)C)[C@H](C)O)[C@@H](C)O)C(=O)N[C@@H](CO)C(=O)N[C@@H](CO)C(=O)N[C@@H](Cc1ccc(O)cc1)C(=O)NCC(=O)N[C@@H](CCCNC(=N)N)C(=O)N[C@@H](CCCCN)C(=O)N[C@@H](CCCCN)C(=O)N[C@@H](CCCNC(=N)N)C(=O)N[C@@H](CCCNC(=N)N)C(=O)N[C@@H](CCC(N)=O)C(=O)N[C@@H](CCCNC(=N)N)C(=O)N[C@@H](CCCNC(=N)N)C(=O)N[C@@H](CCCNC(=N)N)C(=O)O the Activity [1] was “Non-Toxic”, the Activity (Alpha-synuclein [2]) was “Active” and the Activity (SH-SY5Y [3]) was 26.7%. For the same compound, the Activity [4] was “Non-Toxic”, the Activity (Alpha-synuclein [5]) was “Active” and the Activity (Alpha-synuclein [6]) was “Active”. The Activity (HEK-293T [7]) was “Active”, the Activity (Mus musculus [8]) was “Active” and the Activity (HEK-293T [9]) was “Active”. For the same compound, the Activity (HEK-293T [10]) was “Active”, the Activity (HEK-293T [11]) was “Active” and the Activity [12] was “Non-Toxic”. For the same compound, the Activity (SH-SY5Y [13]) was 79.7%, the Activity (HEK-293T [14]) was “Active” and the Activity [15] was “Dose-Dependent Effect”. For the same compound, the Activity (SH-SY5Y [16]) was 61.65%, the Activity (HEK-293T [17]) was “Active” and the Activity (HEK-293T [18]) was “Active”. The Activity [19] was “Non-Toxic”, the Activity (Alpha-synuclein [20]) was “Active” and the Activity [21] was “Non-Toxic”. For the same compound, the Drug uptake [22] was “Active”, the Activity (HEK-293T [23]) was “Active” and the Activity (Mus musculus [24]) was “Active”. For the same compound, the Activity (HEK-293T [25]) was “Active”, the Activity [26] was “Dose-Dependent Effect” and the Activity (Mus musculus [27]) was “Active”. For the same compound, the Activity (Mus musculus [28]) was “Active”, the Activity [29] was “Non-Toxic” and the Stability [30] was “Stable”. The Activity [31] was “Non-Toxic”, the Activity (Alpha-synuclein [32]) was “Active” and the Activity [33] was “Toxic”. For the same compound, the Drug uptake [34] was “Active”.
